This is an account of results in patent US10899754B2, “Modulators of indoleamine 2,3-dioxygenase” (GLAXOSMITHKLINE INTELLECTUAL PROPERTY DEVELOPMENT LIMITED, priority 2016, dated 2021).

For series [1], the system named is human peripheral blood mononuclear cells (PBMC). The series can be described thus: PBMC cytotoxicity assay (CellTiter-Glo). The class given is cell-based. The note with it: 2 days, pCC50. On the procedure: (§1) Compounds of the present invention were tested via high-throughput cellular assays utilizing detection of kynurenine via mass spectrometry and cytotoxicity as end-points. For the mass spectrometry and cytotoxicity assays, human peripheral blood mononuclear cells (PBMC) (PB003F; AllCells®, Alameda, Calif.) were stimulated with human interferon-γ (IFN-γ) (Sigma-Aldrich Corporation, St. Louis, Mo.) and lipopolysaccharide from Salmonella minnesota (LPS) (Invivogen, San Diego, Calif.) to induce the expression of indoleamine 2, 3-dioxygenase (IDO1). Compounds with IDO1 inhibitory properties decreased the amount of kynurenine produced by the cells via the tryptophan catabolic pathway. Cellular toxicity due to the effect of compound treatment was measured using CellTiter-Glo® reagent (CTG) (Promega Corporation, Madison, Wis.), which is based on luminescent detection of ATP, an indicator of metabolically active cells.
(§2) In preparation for the assays, test compounds were serially diluted 3-fold in DMSO from a typical top concentration of 1 mM or 5 mM and plated at 0.5 μL in 384-well, polystyrene, clear bottom, tissue culture treated plates with lids (Greiner Bio-One, Kremsmünster, Austria) to generate 11-point dose response curves. Low control wells (0% kynurenine or 100% cytotoxicity) contained either 0.5 μL of DMSO in the presence of unstimulated (−IFN-γ/−LPS) PBMCs for the mass spectrometry assay or 0.5 μL of DMSO in the absence of cells for the cytotoxicity assay, and high control wells (100% kynurenine or 0% cytotoxicity) contained 0.5 μL of DMSO in the presence of stimulated (+IFN-γ/+LPS) PBMCs for both the mass spectrometry and cytotoxicity assays.
(§3) Frozen stocks of PBMCs were washed and recovered in RPMI 1640 medium (Thermo Fisher Scientific, Inc., Waltham, Mass.) supplemented with 10% v/v heat-inactivated fetal bovine serum (FBS) (Thermo Fisher Scientific, Inc., Waltham, Mass.), and 1× penicillin-streptomycin antibiotic solution (Thermo Fisher Scientific, Inc., Waltham, Mass.). The cells were diluted to 1,000,000 cells/mL in the supplemented RPMI 1640 medium. 50 μL of either the cell suspension, for the mass spectrometry assay, or medium alone, for the cytotoxicity assay, were added to the low control wells, on the previously prepared 384-well compound plates, resulting in 50,000 cells/well or 0 cells/well respectively. IFN-γ and LPS were added to the remaining cell suspension at final concentrations of 100 ng/ml and 50 ng/ml respectively, and 50 μL of the stimulated cells were added to all remaining wells on the 384-well compound plates. The plates, with lids, were then placed in a 37° C., 5% CO2 humidified incubator for 2 days.
(§4) Following incubation, the 384-well plates were removed from the incubator and allowed to equilibrate to room temperature for 30 minutes. For the cytotoxicity assay, CellTiter-Glo® was prepared according to the manufacturer's instructions, and 40 μL were added to each plate well. After a twenty minute incubation at room temperature, luminescence was read on an EnVision® Multilabel Reader (PerkinElmer Inc., Waltham, Mass.). For the mass spectrometry assay, 10 μL of supernatant from each well of the compound-treated plates were added to 40 μL of acetonitrile, containing 10 μM of an internal standard for normalization, in 384-well, polypropylene, V-bottom plates (Greiner Bio-One, Kremsmünster, Austria) to extract the organic analytes. Following centrifugation at 2000 rpm for 10 minutes, 10 μL from each well of the acetonitrile extraction plates were added to 90 μL of sterile, distilled H2O in 384-well, polypropylene, V-bottom plates for analysis of kynurenine and the internal standard on the RapidFire 300 (Agilent Technologies, Santa Clara, Calif.) and 4000 QTRAP MS (SCIEX, Framingham, Mass.). MS data were integrated using Agilent Technologies' RapidFire Integrator software, and data were normalized for analysis as a ratio of kynurenine to the internal standard. […]
For orientation: Cellular ATP, detected with luciferase, serves as a proxy for viable cell number.

Series [2] deals with indoleamine 2, 3-dioxygenase (IDO1) (Homo sapiens, UniProt P14902). The series can be described thus: IDO1 PBMC RapidFire MS assay (kynurenine detection by mass spectrometry). More on the design: to induce the expression of indoleamine 2, 3-dioxygenase (IDO1); host or cells: human PBMC stimulated with IFN-gamma and LPS. It counts as cell-based. The note with it: human PBMC stimulated with IFN-γ and LPS, 2 days, pIC50, read-out: PBMC PXC50 (converted). The method, then: IDO1 PBMC RapidFire MS Assay
Chain of indoleamine 2, 3-dioxygenase (IDO1) (P14902 whole entry): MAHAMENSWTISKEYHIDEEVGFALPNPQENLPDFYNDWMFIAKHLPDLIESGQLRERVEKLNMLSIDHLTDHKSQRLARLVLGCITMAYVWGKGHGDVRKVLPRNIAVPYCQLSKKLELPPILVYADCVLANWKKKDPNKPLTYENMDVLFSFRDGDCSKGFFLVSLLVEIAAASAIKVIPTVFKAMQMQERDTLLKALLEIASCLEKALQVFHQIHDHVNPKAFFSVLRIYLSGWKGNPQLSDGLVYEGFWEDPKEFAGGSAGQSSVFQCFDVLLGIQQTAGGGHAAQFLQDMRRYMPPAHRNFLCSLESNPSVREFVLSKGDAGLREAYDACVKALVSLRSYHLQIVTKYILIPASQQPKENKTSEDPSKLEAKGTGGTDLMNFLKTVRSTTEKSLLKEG
as §1, §2, §3, §4

Regarding `CC(C)CN(c1c(F)cc([C@H](C)CC(=O)O)cc1Nc1ccc(Cl)cn1)C1CCOCC1` [Example 35, (R)-3-(3-((5-chloropyridin-2-yl)amino)-5-fluoro-4-(isobutyl(tetrahydro-2H-pyran-4-yl)amino)phenyl)butanoic Acid], the “PBMC TOX PXC50” value in series [1] is on record as less than 5. Besides, the IC50 in series [2] was 0.501 nM.

In the case of `CC(C)CN(c1cc(F)c([C@H](C)CC(=O)O)cc1Nc1ccc(Cl)cn1)C1CCOCC1` [Example 36, (R)-3-(5-((5-chloropyridin-2-yl)amino)-2-fluoro-4-(isobutyl(tetrahydro-2H-pyran-4-yl)amino)phenyl)butanoic Acid], the “PBMC TOX PXC50” value in series [1] is reported as less than 5. Also, the IC50 in series [2] is 0.631 nM.

Regarding `CC(C)CN(c1ccc([C@H](C)CC(=O)O)cc1Nc1ccc(C(N)=O)cn1)C1CCOCC1` [example 240, (3R)-3-{3-[(5-carbamoylpyridin-2-yl)amino]-4-[(2-methylpropyl)(oxan-4-yl)amino]phenyl}butanoic acid], the “PBMC TOX PXC50” value in series [1] is recorded as less than 5. For the same compound, the IC50 in series [2] is 2510 nM.

As for `CC(C)CN(c1ccc(-c2ccccc2C(=O)O)cc1Nc1nc(C#N)ns1)C1CCCCC1` [Example 89, 3′-((3-cyano-1,2,4-thiadiazol-5-yl)amino)-4′-(cyclohexyl(isobutyl)amino)-[1,1′-biphenyl]-2-carboxylic Acid], the “PBMC TOX PXC50” value in series [1] is listed as less than 5. Further, in series [2], the IC50 is 3.98 nM.

Regarding `CC(C)CN(CC(C)C)c1ccc([C@H](C)CC(=O)O)cc1Nc1n[nH]c(C(F)(F)F)n1` [Example 86, (R)-3-(4-(diisobutylamino)-3-((5-(trifluoromethyI)-1H-1,2,4-triazol-3-yl)amino)phenyl)butanoic Acid], the “PBMC TOX PXC50” value in series [1] is given as less than 5. In addition, in series [2], the IC50 is 3.98 nM.

`CC(C)CN(c1ccc([C@H](C)CC(=O)O)cc1Nc1n[nH]c(C#N)n1)[C@H]1CC[C@H](O)CC1` (racemic) [example 224, (3RS)-3-{3-[(5-cyano-1H-1,2,4-triazol-3-yl)amino]-4-[(2-methylpropyl)[(1rs&,4rs&)-4-hydroxycyclohexyl]amino]phenyl}butanoic acid]: the “PBMC TOX PXC50” value in series [1] is less than 5. Besides, in series [2], the IC50 is 1580 nM.

Take `COC(=O)c1c[nH]c(Nc2cc([C@H](C)CC(=O)O)ccc2N(CC(C)C)[C@H]2CC[C@@H](OC)CC2)n1` [Example 46, (R)-3-(4-(isobutyl((1s,4s)-4-methoxycyclohexyl)amino)-3-((4-(methoxycarbonyl)-1H-imidazol-2-yl)amino)phenyl)butanoic Acid]: the “PBMC TOX PXC50” value in series [1] came to 5.2. Moreover, the IC50 in series [2] is 1.58 nM.

For `CC[C@H](CC(=O)O)c1ccc(N(CC(C)C)C2CCOCC2)c(Nc2n[nH]c(C3CC3)n2)c1` [Example 41, (R)-3-(3-((5-cyclopropyl-1H-1,2,4-triazol-3-yl)amino)-4-(isobutyl(tetrahydro-2H-pyran-4-yl)amino)phenyl)pentanoic Acid], in series [1], the “PBMC TOX PXC50” value is on record as less than 5. The IC50 in series [2] is 7.94 nM.

As for `CO[C@H]1CC[C@@H](N(CC(C)C)c2ccc([C@H](C)CC(=O)O)cc2Nc2nc(C(F)(F)F)c[nH]2)CC1` [Example 62, (R)-3-(4-(isobutyl((cis)-4-methoxycyclohexyl)amino)-3-((4-(trifluoromethyl)-1H-imidazol-2-yl)amino)phenyl)butanoic Acid], in series [1], the “PBMC TOX PXC50” value is on record as less than 5. Also, in series [2], the IC50 was 3.98 nM.

In the case of `CO[C@H]1CC[C@H](N(CC(C)C)c2ccc([C@H](C)CC(=O)O)cc2Nc2n[nH]c(C(N)=O)n2)CC1` (racemic) [example 223, (3RS)-3-{3-[(5-carbamoyl-1H-1,2,4-triazol-3-yl)amino]-4-[(2-methylpropyl)[(1rs&,4rs&)-4-methoxycyclohexyl]ami-no]phenyl}butanoic acid], the “PBMC TOX PXC50” value in series [1] is less than 5. In addition, the IC50 in series [2] is 501 nM.

Take `CC(C)CN(c1ccc([C@H](C)CC(=O)O)cc1Nc1cnc(C(N)=O)cn1)C1CCOCC1` [example 264, (3R)-3-{3-[(5-carbamoylpyrazin-2-yl)amino]-4-[(2-methylpropyl)(oxan-4-yl)amino]phenyl}butanoic acid]: the “PBMC TOX PXC50” value in series [1] is recorded as less than 5. The IC50 in series [2] was 79.4 nM.

In the case of `CO[C@H]1CC[C@H](N(CC(C)C)c2ccc([C@H](C)CC(=O)O)cc2Nc2n[nH]c(C(F)(F)F)n2)CC1` [Example 52], the “PBMC TOX PXC50” value in series [1] was less than 5. Also, in series [2], the IC50 was 10 nM.

Regarding `CNC(=O)c1nnc(Nc2cc(C(C)CC(=O)O)ccc2N(CC(C)C)C2CCCCC2)s1` (stereo not shown) [Example 79], in series [1], the “PBMC TOX PXC50” value is on record as less than 5. For the same compound, the IC50 in series [2] is 5.01 nM.

`COCc1ccc(Nc2cc([C@H](C)CC(=O)O)ccc2N(CC(C)C)[C@H]2CC[C@@H](OC)CC2)nc1` [Example 60, (R)-3-(4-(isobutyl((1s,4S)-4-methoxycyclohexyl)amino)-3-((5-(methoxymethyl)pyridin-2-yl)amino)phenyl)butanoic Acid]: in series [1], the “PBMC TOX PXC50” value is less than 5. Further, the IC50 in series [2] is 10 nM.

As for `CC(C)CN(c1ccc([C@H](C)CC(=O)O)cc1Nc1nc(C(C)C)ns1)C1CCOCC1` [Example 26, (R)-3-(4-(isobutyl(tetrahydro-2H-pyran-4-yl)amino)-3-((3-isopropyl-1,2,4-thiadiazol-5-yl)amino)phenyl)butanoic Acid], the “PBMC TOX PXC50” value in series [1] is on record as less than 5. The IC50 in series [2] was 3.16 nM.

As to `CNC(=O)c1nc(Nc2cc([C@H](C)CC(=O)O)ccc2N(CC(C)C)[C@H]2CC[C@@H](OC)CC2)n[nH]1` (racemic) [example 246, (3RS)-3-(3-{[5-(methylcarbamoyl)-1H-1,2,4-triazol-3-yl]amino}-4-[(2-methylpropyl)[(1rs&,4rs&)-4-methoxycyclohexyl]ami-no]phenyl)butanoic acid], the “PBMC TOX PXC50” value in series [1] is given as less than 5. Moreover, in series [2], the IC50 is 25.1 nM.

Turning to `CC(C)CN(c1ccc([C@H](C)CC(=O)O)cc1Nc1n[nH]c(C(F)(F)F)n1)[C@H]1CC[C@@H](Br)CC1` [Example 93, (R)-3-(4-(((cis)-4-bromocyclohexyl) (isobutyl)amino)-3-((5-(trifluoromethyl)-1H-1,2,4-triazol-3-yl)amino)phenyl)butanoic Acid], in series [1], the “PBMC TOX PXC50” value is given as less than 5. Also, the IC50 in series [2] is 1.26 nM.

In the case of `CC(C)CN(CC(C)C)c1ccc(C(C)CC(=O)O)cc1Nc1nnn(C)n1` (stereo not shown) [example 251, 3-{4-[bis(2-methylpropyl)amino]-3-[(2-methyl-2H-1,2,3,4-tetrazol-5-yl)amino]phenyl}butanoic acid], the “PBMC TOX PXC50” value in series [1] is given as less than 5. In series [2], the IC50 is 2000 nM.

Consider `Cc1ccc(CC(=O)Nc2cc(-c3ccccc3C(=O)O)ccc2N(CC(C)C)C23CC(C2)C3)cc1` [example 268, 4′-({bicyclo[1.1.1]pentan-1-yl}(2-methylpropyl)amino)-3′-[2-(4-methylphenyl)acetamido]-[1,1′-biphenyl]-2-carboxylic acid], for which, in series [1], the “PBMC TOX PXC50” value was less than 5. Besides, in series [2], the IC50 was 2000 nM.

In the case of `CC(C)CN(c1ccc([C@H](C)CC(=O)O)cc1Nc1nc(C(F)(F)F)ns1)C1CCN(C(=O)OC(C)(C)C)CC1` [Example 69, (R)-3-(4-((1-(tert-butoxycarbonyl)piperidin-4-yl) (isobutyl)amino)-3-((3-(trifluoromethyl)-1,2,4-thiadiazol-5-yl)amino)phenyl)butanoic Acid], the “PBMC TOX PXC50” value in series [1] is on record as less than 5. Besides, the IC50 in series [2] is 2.51 nM.
